Experimental data reported in EP4389751A1, “HETEROCYCLIC COMPOUNDS AND USES THEREOF” (Kumquat Biosciences Inc., priority 2021, dated 2024).
Like-named read-outs stand apart in the source and are kept apart here.

Columns and labels:
[1] = target: T1, KRAS protein (His-tagged GDP-loaded G12S 1-169) (Homo sapiens, UniProt P01116, G12S); test: Covalent modification of KRAS protein, intact-protein LC-MS; type: binding; settings: for % G12S Modification at 24 hr.: 24hrs at room temperature, KRAS protein ~2 µM
T1 construct: His-tagged GDP-loaded G12S 1-169
Outline: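 His-tagged GDP-loaded KRAS 1-169 (~2 µM) incubated with compound 24 h at room temperature, then quenched with formic acid. Intact-protein LC-ESI-MS on C4 column; deconvoluted peak intensities of unmodified and adducted protein give percent covalent modification.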

[2] = system: GP2D cells; test: Cell proliferation assay (CellTiter-Glo), K-Ras G12D cells; type: cell-based; settings: read-out: Inhibition of GP2D Cells (IC50)
Outline: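 GP2D (K-Ras G12D) cells seeded in DMEM with 2 mM glutamine and 10% FBS, then dosed next day with a dilution series (e.g., 9-point 3-fold). Viability read by CellTiter-Glo luminescence after about 5 days. IC50 from four-parameter fit.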

SMILES	% G12S Modification at 24 hr. [1]	IC50 ([2]; GP2D cells (K-Ras G12D)) [µM]	IC50 ([2]; GP2d) [µM]	K-Ras12S engagement after 24-hour treatment ([1]; 24-hour treatment, compound pairs differ only at R^6 (warhead))
Nc1nc2c(-c3c(Cl)cc4c(N5CCCN(C(=O)n6cncn6)CC5)nc(OC[C@@]56CCCN5C[C@H](F)C6)nc4c3F)ccc(F)c2s1 [Compound A191, (4-(7-(2-amino-7-fluorobenzo[d]thiazol-4-yl)-6-chloro-8-fluoro-2-(((2R,7aS)-2-fluorotetrahydro-1H-pyrrolizin-7a(5H)-yl)methoxy)quinazolin-4-yl)-1,4-diazepan-1-yl)(1H-1,2,4-triazol-1-yl)methanone]	+++ (+++ indicates greater than 20% labelling)	1 to 10	–	–
N#Cc1c(N)sc2c(F)ccc(-c3c(Cl)cc4c(N5CCOC6(CN(C(=O)n7ccnn7)C6)C5)nc(OC[C@@]56CCCN5C[C@H](F)C6)nc4c3F)c12 [Compound A195, 4-(4-(2-(1H-1,2,3-triazole-1-carbonyl)-5-oxa-2,8-diazaspiro[3.5]nonan-8-yl)-6-chloro-8-fluoro-2-(((2R,7aS)-2-fluorotetrahydro-1H-pyrrolizin-7a(5H)-yl)methoxy)quinazolin-7-yl)-2-amino-7-fluorobenzo[b]thiophene-3-carbonitrile]	+++ (+++ indicates greater than 20% labelling)	1 to 10	–	–
N#Cc1c(N)sc2c(F)ccc(-c3c(Cl)cc4c(N5CCOC6CN(C(=O)n7cncn7)CC65)nc(OC[C@@]56CCCN5C[C@H](F)C6)nc4c3F)c12 (stereo partly drawn) [Compound A218, 4-(4-(6-(1H-1,2,4-triazole-1-carbonyl)hexahydropyrrolo [3,4-b][1,4]oxazin-4(4aH)-yl)-6-chloro-8-fluoro-2-(((2R,7aS)-2-fluorotetrahydro-1H-pyrrolizin-7a(5H)-yl)methoxy)quinazolin-7-yl)-2-amino-7-fluorobenzo[b]thiophene-3-carbonitrile]	+++ (+++ indicates greater than 20% labelling)	1 to 10	–	–
N#Cc1ccn(C(=O)N2C3CCC2CN(c2nc(OC[C@@]45CCCN4C[C@H](F)C5)nc4c(F)c(-c5ccc(F)c6sc(N)c(C#N)c56)c(Cl)cc24)C3)n1 [Compound A224, 1-(3-(7-(2-amino-3-cyano-7-fluorobenzo[b]thiophen-4-yl)-6-chloro-8-fluoro-2-(((2R,7aS)-2-fluorotetrahydro-1H-pyrrolizin-7a(5H)-yl)methoxy)quinazolin-4-yl)-3,8-diazabicyclo[3.2. 1]octane-8-carbonyl)-1H-pyrazole-3-carbonitrile]	++ (++ indicates between about 1%- 20% labelling)	≤ 1	–	–
CN(C)C1CN(c2nc(N3CCOC4(CN(C(=O)n5cncn5)C4)C3)c3cc(Cl)c(-c4ccc(F)c5sc(N)c(C#N)c45)c(F)c3n2)C1 [Compound A256, 4-(4-(2-(1H-1,2,4-triazole-1-carbonyl)-5-oxa-2,8-diazaspiro[3.5]nonan-8-yl)-6-chloro-2-(3-(dimethylamino)azetidin-1-yl)-8-fluoroquinazolin-7-yl)-2-amino-7-fluorobenzo[b]thiophene-3-carbonitrile]	+++ (+++ indicates greater than 20% labelling)	1 to 10	–	–
N#Cc1c(N)sc2c(F)ccc(-c3c(Cl)cc4c(N[C@H]5C[C@H]6CC[C@@H](C5)N6C(=O)n5cncn5)nc(OC[C@@]56CCCN5C[C@H](F)C6)nc4c3F)c12 [Compound A257, 4-(4-(((1R,3r,5S)-8-(1H-1,2,4-triazole-1-carbonyl)-8-azabicyclo[3.2.1]octan-3-yl)amino)-6-chloro-8-fluoro-2-(((2R,7aS)-2-fluorotetrahydro-1H-pyrrolizin-7 a(5H)-yl)methoxy)quinazolin-7-yl)-2-amino-7-fluorobenzo[b]thiophene-3-carbonitrile]	++ (++ indicates between about 1%- 20% labelling)	–	1 to 10	–
N#Cc1c(N)sc2c(F)ccc(-c3c(Cl)cc4c(OC5CCCCN(C(=O)n6cncn6)C5)nc(OC[C@@]56CCCN5C[C@H](F)C6)nc4c3F)c12 (stereo partly drawn) [Compound A258, 4-(4-((1-(1H-1,2,4-triazole-1-carbonyl)azepan-3-yl)oxy)-6-chloro-8-fluoro-2-(((2R,7aS)-2-fluorotetrahydro-1H-pyrrolizin-7a(5H)-yl)methoxy)quinazolin-7-yl)-2-amino-7-fluorobenzo[b]thiophene-3-carbonitrile]	+++ (+++ indicates greater than 20% labelling)	≤ 1	–	–
N#Cc1c(N)sc2c(F)ccc(-c3c(Cl)cc4c(N5CCC6(CN(C(=O)n7cncn7)C6)C5)nc(OC[C@@]56CCCN5C[C@H](F)C6)nc4c3F)c12 [Compound A277, 4-(4-(2-(1H-1,2,4-triazole-1-carbonyl)-2,6-diazaspiro[3.4]octan-6-yl)-6-chloro-8-fluoro-2-(((2R,7aS)-2-fluorotetrahydro-1H-pyrrolizin-7a(5H)-yl)methoxy)quinazolin-7-yl)-2-amino-7-fluorobenzo[b]thiophene-3-carbonitrile]	+++ (+++ indicates greater than 20% labelling)	1 to 10	–	+++ (+++: indicates equal to or greater than 20% labelling)
Cc1nc(C)n(C(=O)N2CC3(C2)CN(c2nc(OC[C@@]45CCCN4C[C@H](F)C5)nc4c(F)c(-c5ccc(F)c6sc(N)c(C#N)c56)c(Cl)cc24)CCO3)n1 [Compound A283, 2-amino-4-(6-chloro-4-(2-(3,5-dimethyl-1H-1,2,4-triazole-1-carbonyl)-5-oxa-2,8-diazaspiro[3.5]nonan-8-yl)-8-fluoro-2-(((2R,7aS)-2-fluorotetrahydro-1H-pyrrolizin-7a(5H)-yl)methoxy)quinazolin-7-yl)-7-fluorobenzo[b]thiophene-3-carbonitrile]	+++ (+++ indicates greater than 20% labelling)	1 to 10	–	–
N#Cc1c(N)sc2c(F)ccc(-c3c(Cl)cc4c(N5CC6(CCCCN(C(=O)n7cncn7)C6)C5)nc(OC[C@@]56CCCN5C[C@H](F)C6)nc4c3F)c12 [Compound A285, 4-(4-(6-(1H-1,2,4-triazole-1-carbonyl)-2,6-diazaspiro[3.6]decan-2-yl)-6-chloro-8-fluoro-2-(((2R,7aS)-2-fluorotetrahydro-1H-pyrrolizin-7a(5H)-yl)methoxy)quinazolin-7-yl)-2-amino-7-fluorobenzo[b]thiophene-3-carbonitrile]	+++ (+++ indicates greater than 20% labelling)	1 to 10	–	–
C#Cc1c(F)ccc2cc(O)cc(-c3ncc4c(N5CCOCC6(CN(C(=O)n7cnc(C)n7)C6)C5)nc(OC[C@@]56CCCN5C[C@H](F)C6)nc4c3F)c12 [Compound A298, (9-(7-(8-ethynyl-7-fluoro-3-hydroxynaphthalen-1-yl)-8-fluoro-2-(((2R,7aS)-2-fluorotetrahydro-1H-pyrrolizin-7a(5H)-yl)methoxy)pyrido[4,3-d]pyrimidin-4-yl)-6-oxa-2,9-diazaspiro[3.6]decan-2-yl)(3-methyl-1H-1,2,4-triazol-1-yl)methanone]	+++ (+++ indicates greater than 20% labelling)	1 to 10	–	–
Cc1ncn(C(=O)N2CC3CCN(c4nc(OC[C@@]56CCCN5C[C@H](F)C6)nc5c(F)c(-c6ccc(F)c7sc(N)c(C#N)c67)c(Cl)cc45)C3C2)n1 (stereo partly drawn) [Compound A304, 2-amino-4-(6-chloro-8-fluoro-2-(((2R,7aS)-2-fluorotetrahydro-1H-pyrrolizin-7a(5H)-yl)methoxy)-4-(5-(3-methyl-1 H-1,2,4-triazole-1-carbonyl)hexahydropyrrolo[3,4-b]pyrrol-1(2H)-yl)quinazolin-7-yl)-7-fluorobenzo[b]thiophene-3-carbonitrile]	+++ (+++ indicates greater than 20% labelling)	1 to 10	–	–
